Assay results taken from patent US6368413B1, “Process for preparing improved sugar product” (Praxair Technology, Inc., priority 2000, dated 2002).

Tested on: Aerobic Bacteria
Experiment: Disinfection of sugar liquor by ozonation, aerobic bacteria count
Procedure: In the laboratory, tests were performed on refinery liquors at Brix 66 to 70 and color between 60 and 300 Icumsa units (the color of sugar liquors is expressed in Icumsa units following the specific and standardized methodology well known in the sugar industry). A laboratory model generator was used to pass ozone into a batch reactor. The ozone generator was operating on a pure feed gas and it produced 40 g/h of ozone at 5% concentration. Two mixer reactors were used, the first one operating at 800 rpm under a pressure of 60 psig with 2L capacity and the second one operating at atmospheric pressure and 1200 rpm with 10 L capacity. A series of tests were carried out with different types of liquors and the treated sugar was characterized in terms of color, turbidity, pH, saccharose degradation, toxicity and disinfection. The following examples present results of experiments performed in different ozonation conditions with different types of liquors. A 184 Icumsa color units liquor was treated with 200 mg/L of ozone during 8 min using the pressurized reactor. A low color liquor, 64 Icumsa units was treated in the atmospheric pressure reactor under two different ozonation conditions. The following table presents the results of microbiological analyses.

Q: For `O=[O+][O-]` [ozone], which “reduction of number of total bacteria after ozonation” value (Example 6: 200 mg/L ozone, 8 min) is on record?
A: Its value is 95%.

Q: What about the reduction of bacteria (Example 7: 200 mg/l ozone) of the same compound?
A: The reduction of bacteria was 89%.

Q: What about the disinfection (Example 7: 400 mg/L of ozone) of the same compound?
A: The disinfection was “complete disinfection”.
